Data from article PMC5775429, “LY2087101 and dFBr share transmembrane binding sites in the (α4)3(β2)2 Nicotinic Acetylcholine Receptor” (Scientific Reports, 2018).
“And” between values parts separate entries of the source, which are not always exact repeats. Identical values can stand only once. Like-named read-outs stand apart in the source and are kept apart here. Marks after values point to notes of the source that are not given here.

Columns and labels:
[1] = biological target: T1, (α4)3(β2)2 nAChR (Homo sapiens, UniProt P17787+P43681); assay: Two-electrode voltage-clamp of ACh-induced currents in Xenopus oocytes; format: cell-based; settings: for R, potentiation ratio (PR): 10 µM ACh + 1 µM PAM vs 10 µM ACh alone
T1 construct: expressed in transfected cells; host or cells: Xenopus laevis oocytes injected with cRNA
T1 sequence (P43681 29-627 limits assumed): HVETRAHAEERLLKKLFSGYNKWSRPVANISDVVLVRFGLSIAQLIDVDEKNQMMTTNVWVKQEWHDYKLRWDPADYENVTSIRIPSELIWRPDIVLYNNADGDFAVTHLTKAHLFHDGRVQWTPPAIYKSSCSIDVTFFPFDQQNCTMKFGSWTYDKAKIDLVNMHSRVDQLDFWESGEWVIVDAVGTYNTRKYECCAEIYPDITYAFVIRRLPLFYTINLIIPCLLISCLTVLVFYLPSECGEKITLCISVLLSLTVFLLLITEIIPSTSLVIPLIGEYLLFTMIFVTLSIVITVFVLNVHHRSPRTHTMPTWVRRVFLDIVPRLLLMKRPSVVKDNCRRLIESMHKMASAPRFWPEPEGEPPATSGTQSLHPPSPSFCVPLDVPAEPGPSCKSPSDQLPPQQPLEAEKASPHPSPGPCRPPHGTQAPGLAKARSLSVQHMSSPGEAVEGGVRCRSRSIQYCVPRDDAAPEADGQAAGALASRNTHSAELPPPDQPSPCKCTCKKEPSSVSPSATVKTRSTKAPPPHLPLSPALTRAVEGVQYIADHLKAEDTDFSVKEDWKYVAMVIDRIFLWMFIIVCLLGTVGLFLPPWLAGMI
T1 sequence (P17787 26-502): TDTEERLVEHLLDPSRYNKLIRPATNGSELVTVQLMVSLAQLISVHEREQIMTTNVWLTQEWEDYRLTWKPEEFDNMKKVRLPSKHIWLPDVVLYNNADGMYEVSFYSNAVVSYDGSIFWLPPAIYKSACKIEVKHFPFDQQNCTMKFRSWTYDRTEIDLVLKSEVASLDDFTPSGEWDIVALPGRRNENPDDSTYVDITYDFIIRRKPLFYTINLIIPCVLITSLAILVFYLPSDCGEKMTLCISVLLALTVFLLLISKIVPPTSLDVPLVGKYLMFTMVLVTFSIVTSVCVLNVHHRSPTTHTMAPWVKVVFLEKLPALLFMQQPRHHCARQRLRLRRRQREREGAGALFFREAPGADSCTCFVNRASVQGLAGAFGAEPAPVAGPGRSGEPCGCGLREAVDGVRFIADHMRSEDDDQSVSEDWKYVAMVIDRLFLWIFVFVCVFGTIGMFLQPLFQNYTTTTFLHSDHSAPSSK
Procedure: To begin to characterize LY2087101 interaction with the heteropentameric α4β2 nAChRs, we examined the selectivity of LY2087101 for the two α4β2 nAChR isoforms; high-agonist sensitivity (α4)2(β2)3 and low-agonist sensitivity (α4)3(β2)2 nAChRs. Xenopus oocytes were injected with α4 and β2 subunits RNAs at ratios 8:1 and 1:8 to favor expression of (α4)3(β2)2 and (α4)2(β2)3 nAChRs, respectively.
(§1) Ovarian lobules were surgically harvested from oocytes-positive female Xenopus laevis (NASCO, Fort Atkinson, WI) according to an animal use protocol approved by the Texas A&M Health Sciences Center Institutional Animals Care and Use Committee. The Texas A&M Health Sciences Center Research Facility is registered as an animal research facility with the United States Department of Agriculture and is fully accredited by the American Association for Accreditation of Laboratory Animal Care (AAALAC). For oocytes defolliculation, ovarian lobes were treated with 3 mg/ml collagenase type 2 (Worthington Biomedical, Lakewood, NJ) in Ca + 2-free buffer (85 mM NaCl, 2.5 mM KCl, 1 mM MgCl2, 5 mM HEPES, pH 7.6). Collagenase treatment was allowed to proceed for 3 hours at room temperature with gentle shaking then oocytes were washed several times with buffer to remove collagenase then with ND96-gentamicine buffer. Healthy Stage V and VI oocytes were visually selected and maintained at 18 °C in modified ND96-gentamicine buffer (96 mM NaCl, 2 mM KCl, 1.8 mM CaCl2, 1 mM MgCl2, 5 mM HEPES, 50 µg/ml gentamicin, pH 7.6). Oocytes were injected with 50–100 ng of the desired nAChR subunits cRNA mix at ratios of 8α:1β or 1α:8β to express nAChRs with subunit stoichiometries of 3α:2β (low agonist sensitivity) or 2α:3β (high agonist sensitivity), respectively.
(§2) Oocytes were continuously perfused with recording buffer (100 mM NaCl, 2 mM KCl, 1 mM CaCl2, 0.8 mM MgCl2, 1 mM EGTA, 10 mM Hepes, pH 7.5) except during periods of drug applications.

[2] = biological target: (α4L311V)3(β2)2 nAChR (Homo sapiens, UniProt P43681, L311V); assay: as above; format: cell-based; settings: 10 µM ACh + 1 µM PAM vs 10 µM ACh alone
Sequence of (α4L311V)3(β2)2 nAChR (P43681 29-627 L311V limits assumed): as the sequence (P43681 29-627 limits assumed) above, with L283V counted along it
Sequence of (α4L311V)3(β2)2 nAChR (P17787 26-502 partner): as the sequence (P17787 26-502) above
Procedure: (§3) For amino acid substitutions within the α4 nAChR subunit, point mutations were introduced into pSP64ployA plasmid with cDNA encoding for human α4 nAChR subunit with mutagenic primer pairs using the Quick Change II Site-Directed Mutagenesis Kit (Agilent Technologies) then confirmed by DNA sequencing (GENEWIZ, LLC, South Plainfield, NJ). cRNA transcripts suitable for oocyte expression were prepared in vitro from linearized plasmids [α3 (BamH1), α4 (AseI), β2 (PvuII), β4 (XhoI)] using mMESSAGE mMACHINE high yield capped RNA transcription kits (Ambion) and purified on NucAway Spin column (Invitrogen). cRNA concentration was determined by spectroscopy (Concentration (ug/ul) = Abs260 * 40), aliquoted and stored at −80 °C until used.
as §1, §2

[3] = biological target: T2, (α4I607T)3(β2)2 nAChR (Homo sapiens, UniProt P17787+P43681, I607T); assay: as above; format: cell-based; settings: for R, potentiation ratio (PR): 10 µM ACh + 1 µM PAM vs 10 µM ACh alone
T2 construct: expressed in transfected cells; host or cells: Xenopus laevis oocytes injected with cRNA
T2 sequence (P43681 29-627 I607T limits assumed): as the sequence (P43681 29-627 limits assumed) above, with I579T counted along it
T2 sequence (P17787 26-502): as the sequence (P17787 26-502) above
Procedure: as §3, §1, §2

[4] = biological target: T3, (α4M605I)3(β2)2 nAChR (Homo sapiens, UniProt P17787+P43681, M605I); assay: as above; format: cell-based; settings: for R, potentiation ratio (PR): 10 µM ACh + 1 µM PAM vs 10 µM ACh alone
T3 construct: expressed in transfected cells; host or cells: Xenopus laevis oocytes injected with cRNA
T3 sequence (P43681 29-627 M605I limits assumed): as the sequence (P43681 29-627 limits assumed) above, with M577I counted along it
T3 sequence (P17787 26-502): as the sequence (P17787 26-502) above
Procedure: as §3, §1, §2

[5] = biological target: T4, (α4H332Y)3(β2)2 nAChR (Homo sapiens, UniProt P17787+P43681, H332Y); assay: as above; format: cell-based; settings: for R, potentiation ratio (PR): 10 µM ACh + 1 µM PAM vs 10 µM ACh alone
T4 construct: expressed in transfected cells; host or cells: Xenopus laevis oocytes injected with cRNA
T4 sequence (P43681 29-627 H332Y limits assumed): as the sequence (P43681 29-627 limits assumed) above, with H304Y counted along it
T4 sequence (P17787 26-502): as the sequence (P17787 26-502) above
Procedure: as §3, §1, §2

[6] = biological target: T5, (α4L310F)3(β2)2 nAChR (Homo sapiens, UniProt P17787+P43681, L310F); assay: as above; format: cell-based; settings: for R, potentiation ratio (PR): 10 µM ACh + 1 µM PAM vs 10 µM ACh alone
T5 construct: expressed in transfected cells; host or cells: Xenopus laevis oocytes injected with cRNA
T5 sequence (P43681 29-627 L310F limits assumed): as the sequence (P43681 29-627 limits assumed) above, with L282F counted along it
T5 sequence (P17787 26-502): as the sequence (P17787 26-502) above
Procedure: as §3, §1, §2

[7] = biological target: T6, (α4S284G)3(β2)2 nAChR (Homo sapiens, UniProt P17787+P43681, S284G); assay: as above; format: cell-based; settings: for R, potentiation ratio (PR): 10 µM ACh + 1 µM PAM vs 10 µM ACh alone
T6 construct: expressed in transfected cells; host or cells: Xenopus laevis oocytes injected with cRNA
T6 sequence (P43681 29-627 S284G limits assumed): as the sequence (P43681 29-627 limits assumed) above, with S256G counted along it
T6 sequence (P17787 26-502, stated change not applied): as the sequence (P17787 26-502) above
Procedure: as §3, §1, §2

[8] = biological target: T7, (α4I608L)3(β2)2 nAChR (Homo sapiens, UniProt P17787+P43681, I608L); assay: as above; format: cell-based; settings: for R, potentiation ratio (PR): 10 µM ACh + 1 µM PAM vs 10 µM ACh alone
T7 construct: expressed in transfected cells; host or cells: Xenopus laevis oocytes injected with cRNA
T7 sequence (P43681 29-627 I608L limits assumed): as the sequence (P43681 29-627 limits assumed) above, with I580L counted along it
T7 sequence (P17787 26-502): as the sequence (P17787 26-502) above
Procedure: as §3, §1, §2

[9] = biological target: T8, (α4F606Y)3(β2)2 nAChR (Homo sapiens, UniProt P17787+P43681, F606Y); assay: as above; format: cell-based; settings: for R, potentiation ratio (PR): 10 µM ACh + 1 µM PAM vs 10 µM ACh alone
T8 construct: expressed in transfected cells; host or cells: Xenopus laevis oocytes injected with cRNA
T8 sequence (P43681 29-627 F606Y limits assumed): as the sequence (P43681 29-627 limits assumed) above, with F578Y counted along it
T8 sequence (P17787 26-502): as the sequence (P17787 26-502) above
Procedure: as §3, §1, §2

[10] = biological target: (α4F316L)3(β2)2 nAChR (Homo sapiens, UniProt P43681, F316L); assay: as above; format: cell-based; settings: for R, potentiation ratio (PR): 10 µM ACh + 1 µM PAM vs 10 µM ACh alone
Sequence of (α4F316L)3(β2)2 nAChR (P43681 29-627 F316L limits assumed): as the sequence (P43681 29-627 limits assumed) above, with F288L counted along it
Sequence of (α4F316L)3(β2)2 nAChR (P17787 26-502 partner): as the sequence (P17787 26-502) above
Procedure: as §3, §1, §2

[11] = biological target: (α4L256F)3(β2)2 nAChR (Homo sapiens, UniProt P43681, L256F); assay: as above; format: cell-based; settings: for R, potentiation ratio (PR): 10 µM ACh + 1 µM PAM vs 10 µM ACh alone
Sequence of (α4L256F)3(β2)2 nAChR (P43681 29-627 L256F limits assumed): as the sequence (P43681 29-627 limits assumed) above, with L228F counted along it
Sequence of (α4L256F)3(β2)2 nAChR (P17787 26-502 partner): as the sequence (P17787 26-502) above
Procedure: as §3, §1, §2

[12] = biological target: T9, α3β2 nAChR (Homo sapiens, UniProt P17787+P32297); assay: as above; format: cell-based; settings: 1 μM PAM
T9 construct: expressed in transfected cells; host or cells: Xenopus laevis oocytes injected with cRNA
T9 sequence (P32297 32-505): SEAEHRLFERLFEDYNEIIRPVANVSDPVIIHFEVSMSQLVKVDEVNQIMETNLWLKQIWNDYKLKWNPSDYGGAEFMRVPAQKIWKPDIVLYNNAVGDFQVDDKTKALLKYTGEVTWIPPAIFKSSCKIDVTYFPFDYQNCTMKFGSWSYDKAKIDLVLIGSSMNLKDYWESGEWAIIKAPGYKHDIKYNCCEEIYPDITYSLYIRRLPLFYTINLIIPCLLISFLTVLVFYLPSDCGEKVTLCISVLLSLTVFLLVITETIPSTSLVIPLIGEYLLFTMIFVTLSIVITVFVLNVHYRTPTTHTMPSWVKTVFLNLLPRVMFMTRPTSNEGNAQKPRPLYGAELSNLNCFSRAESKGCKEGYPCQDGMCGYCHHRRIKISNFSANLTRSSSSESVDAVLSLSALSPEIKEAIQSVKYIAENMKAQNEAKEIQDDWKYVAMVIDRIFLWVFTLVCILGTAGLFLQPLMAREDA
T9 sequence (P17787 26-502): as the sequence (P17787 26-502) above

[13] = tested on: animal model; design: method as in PMID 23712602, PMID 28446611, PMID 28809075, PMID 28105008; settings: cited from earlier work
[14] = biological target: (α4R65H)3(β2)2 nAChR (Homo sapiens, UniProt P43681, R65H); design: method as in PMID 28446611; settings: 10 µM ACh + 1 µM dFBr vs 10 µM ACh alone; data reported previously ref 29; cited from earlier work
Sequence of (α4R65H)3(β2)2 nAChR (P43681 29-627 R65H limits assumed): as the sequence (P43681 29-627 limits assumed) above, with R37H counted along it
Sequence of (α4R65H)3(β2)2 nAChR (P17787 26-502 partner): as the sequence (P17787 26-502) above

[15] = biological target: (α4H142L)3(β2)2 nAChR (Homo sapiens, UniProt P43681, H142L); design: method as in PMID 28446611; settings: 10 µM ACh + 1 µM dFBr vs 10 µM ACh alone; data reported previously ref 29; cited from earlier work
Sequence of (α4H142L)3(β2)2 nAChR (P43681 29-627 H142L limits assumed): as the sequence (P43681 29-627 limits assumed) above, with H114L counted along it
Sequence of (α4H142L)3(β2)2 nAChR (P17787 26-502 partner): as the sequence (P17787 26-502) above

[16] = biological target: (α4H94N)3(β2)2 nAChR (Homo sapiens, UniProt P43681, H94N); design: method as in PMID 28446611; settings: 10 µM ACh + 1 µM dFBr vs 10 µM ACh alone; data reported previously ref 29; cited from earlier work
Sequence of (α4H94N)3(β2)2 nAChR (P43681 29-627 H94N limits assumed): as the sequence (P43681 29-627 limits assumed) above, with H66N counted along it
Sequence of (α4H94N)3(β2)2 nAChR (P17787 26-502 partner): as the sequence (P17787 26-502) above

[17] = ACh concentration-response curve, normalized to 1 mM ACh alone
[18] = normalized to peak current by 10 µM ACh alone, curve fit
[19] = read-out: LY2087101 potentiation EC50

SMILES: Cc1nc(Nc2ccc(F)cc2)sc1C(=O)c1ccsc1 [LY2087101, [2-[(4-Fluorophenyl)amino]-4-methyl-5-thiazolyl]-3-thienylmethanone]
- R, potentiation ratio (PR) ([1]; WT): 4.1 ± 0.3
- ACh Imax in the presence of 1 µM LY2087101 [1, 17]: 251 ± 19% and ~ 250%
- EC50 ([1]; co-applied with 10 µM ACh, LS WT, read-out: LY2087101 potentiation EC50): 1400 nM and 1000 to 2000 nM
- R, potentiation ratio (PR) [2]: 15.6 ± 3.2
- R, potentiation ratio (PR) [3]: 5.8 ± 0.7
- LY2087101 potentiation Imax% [3, 18]: 958 ± 32%
- EC50 [3, 19]: 800 ± 100 nM
- R, potentiation ratio (PR) [4]: 4.5 ± 0.2
- LY2087101 potentiation Imax% [4, 18]: 756 ± 27%
- EC50 [4, 19]: 800 ± 100 nM
- R, potentiation ratio (PR) [5]: 4.2 ± 0.5
- LY2087101 potentiation Imax% [5, 18]: 573 ± 20%
- EC50 [5, 19]: 1300 ± 100 nM
- R, potentiation ratio (PR) [6]: 9.8 ± 1.0
- EC50 [6, 19]: 3100 ± 100 nM
- R, potentiation ratio (PR) [7]: 3.8 ± 0.4
- LY2087101 potentiation Imax% [7, 18]: 537 ± 20%
- EC50 [7, 19]: 700 ± 100 nM
- R, potentiation ratio (PR) [8]: 4.4 ± 0.6
- LY2087101 potentiation Imax% [8, 18]: 840 ± 31%
- EC50 [8, 19]: 1200 ± 100 nM
- R, potentiation ratio (PR) [9]: 2.3 ± 0.3
- ACh Imax in the presence of 1 µM LY2087101 [9, 17]: 144 ± 13% and 144 ± 013%
- LY2087101 potentiation Imax% [9, 18]: 195 ± 13%
- EC50 [9, 19]: 300 ± 200 nM
- R, potentiation ratio (PR) [10]: 1.1 ± 0.1
- ACh Imax in the presence of 1 µM LY2087101 [10, 17]: 122 ± 13%
- R, potentiation ratio (PR) [11]: 1.0 ± 0.1
- ACh Imax in the presence of 1 µM LY2087101 [11, 17]: 104 ± 09%

SMILES: C=CC(C)(C)c1[nH]c2cc(Br)ccc2c1CCNC [dFBr]
- R, potentiation ratio (PR) ([1]; WT): 4.4 ± 0.2
- dFBr potentiation h (Hill coefficient) ([1]; co-applied with 10 μM ACh, WT): 1.1 ± 0.2
- dFBr potentiation Imax ([1]; normalized to 10 µM ACh alone, WT): 580 ± 42%
- EC50 ([1]; read-out: dFBr potentiation EC50): 1000 ± 300 nM
- potentiation of ACh responses [12]: did not potentiate
- nicotine self-administration [13]: reduce nicotine self-administration
- R, potentiation ratio (PR) [2]: 5.8 ± 1.4
- R, potentiation ratio (PR) [3]: 4.7 ± 2.1
- R, potentiation ratio (PR) [4]: 4.5 ± 0.3
- R, potentiation ratio (PR) [5]: 5.5 ± 0.4
- R, potentiation ratio (PR) [6]: 5.6 ± 0.3
- R, potentiation ratio (PR) [7]: 2.8 ± 0.4
- R, potentiation ratio (PR) [8]: 5.4 ± 0.4
- R, potentiation ratio (PR) [9]: 3.1 ± 0.4
- ACh Imax in the presence of 1 µM dFBr [9, 17]: 159 ± 07%
- R, potentiation ratio (PR) [10]: 1.2 and ~ 1.2 and 1.2 ± 0.1
- ACh Imax in the presence of 1 µM dFBr [10, 17]: 148 ± 12%
- dFBr concentration-dependent potentiation of ACh-current responses ([10]; dFBr up to 10 µM, 10 μM ACh): did not potentiate
- R, potentiation ratio (PR) [11]: 1.0 and ~ 1 and 1.0 ± 0.1
- ACh Imax in the presence of 1 µM dFBr [11, 17]: 142 ± 08%
- dFBr concentration-dependent potentiation of ACh-current responses ([11]; dFBr up to 10 µM, 10 μM ACh): did not potentiate
- inhibition at 10 µM ([11]; read-out: inhibition of ACh-current response at 10 μM dFBr): ~25%
- R, potentiation ratio (PR) [14]: 5.3 ± 1.8^a
- R, potentiation ratio (PR) [15]: 8.1 ± 0.6^a
- R, potentiation ratio (PR) [16]: 5.8 ± 0.5^a
